# Laboratory results from patent US9422297B2, “Tricyclic compounds having cytostatic and/or cytotoxic activity and methods of use thereof” (Duquesne University of the Holy Ghost, priority 2007, dated 2016).
# Assays:
# Flk-1 kinase = Flk-1 kinase (Homo sapiens (Human), UniProt P35968); assay: Flk-1 kinase inhibition; format: biochemical; details: Table 3
# B16-F10 tumors = assay: B16-F10 tumor model in vivo; details: athymic mice, 25 mg/kg three times weekly, vs methotrexate and sham
# OCRF-CEM = assay: NCI In-Vitro Testing, Leukemia; format: cell-based
# MOLT-4 = assay: NCI In-Vitro Testing, Leukemia; format: cell-based
# RPMI-8226 = assay: NCI In-Vitro Testing, Leukemia; format: cell-based
# SR = assay: NCI In-Vitro Testing, Leukemia; format: cell-based
# HOP-92 = assay: NCI In-Vitro Testing, Non-Small Cell Lung Cancer; format: cell-based
# HCT-15 = assay: NCI In-Vitro Testing, Colon Cancer; format: cell-based
# HT29 = assay: NCI In-Vitro Testing, Colon Cancer; format: cell-based
# SF-539 = assay: NCI In-Vitro Testing, CNS Cancer; format: cell-based
# UACC-62 = assay: NCI In-Vitro Testing, Melanoma; format: cell-based
# IGROV1 = assay: NCI In-Vitro Testing, Ovarian Cancer; format: cell-based
# 785-0 = assay: NCI In-Vitro Testing, Renal Cancer; format: cell-based
# A498 = assay: NCI In-Vitro Testing, Renal Cancer; format: cell-based
# SN12C = assay: NCI In-Vitro Testing, Renal Cancer; format: cell-based
# UO-31 = assay: NCI In-Vitro Testing, Renal Cancer; format: cell-based
# PC-3 = assay: NCI In-Vitro Testing, Prostate Cancer; format: cell-based
# MCF7 = assay: NCI In-Vitro Testing, Breast Cancer; format: cell-based
# NCWADR-RES = assay: NCI In-Vitro Testing, Breast Cancer; format: cell-based
# Flk-1 kinase, sequence (P35968 20-1356): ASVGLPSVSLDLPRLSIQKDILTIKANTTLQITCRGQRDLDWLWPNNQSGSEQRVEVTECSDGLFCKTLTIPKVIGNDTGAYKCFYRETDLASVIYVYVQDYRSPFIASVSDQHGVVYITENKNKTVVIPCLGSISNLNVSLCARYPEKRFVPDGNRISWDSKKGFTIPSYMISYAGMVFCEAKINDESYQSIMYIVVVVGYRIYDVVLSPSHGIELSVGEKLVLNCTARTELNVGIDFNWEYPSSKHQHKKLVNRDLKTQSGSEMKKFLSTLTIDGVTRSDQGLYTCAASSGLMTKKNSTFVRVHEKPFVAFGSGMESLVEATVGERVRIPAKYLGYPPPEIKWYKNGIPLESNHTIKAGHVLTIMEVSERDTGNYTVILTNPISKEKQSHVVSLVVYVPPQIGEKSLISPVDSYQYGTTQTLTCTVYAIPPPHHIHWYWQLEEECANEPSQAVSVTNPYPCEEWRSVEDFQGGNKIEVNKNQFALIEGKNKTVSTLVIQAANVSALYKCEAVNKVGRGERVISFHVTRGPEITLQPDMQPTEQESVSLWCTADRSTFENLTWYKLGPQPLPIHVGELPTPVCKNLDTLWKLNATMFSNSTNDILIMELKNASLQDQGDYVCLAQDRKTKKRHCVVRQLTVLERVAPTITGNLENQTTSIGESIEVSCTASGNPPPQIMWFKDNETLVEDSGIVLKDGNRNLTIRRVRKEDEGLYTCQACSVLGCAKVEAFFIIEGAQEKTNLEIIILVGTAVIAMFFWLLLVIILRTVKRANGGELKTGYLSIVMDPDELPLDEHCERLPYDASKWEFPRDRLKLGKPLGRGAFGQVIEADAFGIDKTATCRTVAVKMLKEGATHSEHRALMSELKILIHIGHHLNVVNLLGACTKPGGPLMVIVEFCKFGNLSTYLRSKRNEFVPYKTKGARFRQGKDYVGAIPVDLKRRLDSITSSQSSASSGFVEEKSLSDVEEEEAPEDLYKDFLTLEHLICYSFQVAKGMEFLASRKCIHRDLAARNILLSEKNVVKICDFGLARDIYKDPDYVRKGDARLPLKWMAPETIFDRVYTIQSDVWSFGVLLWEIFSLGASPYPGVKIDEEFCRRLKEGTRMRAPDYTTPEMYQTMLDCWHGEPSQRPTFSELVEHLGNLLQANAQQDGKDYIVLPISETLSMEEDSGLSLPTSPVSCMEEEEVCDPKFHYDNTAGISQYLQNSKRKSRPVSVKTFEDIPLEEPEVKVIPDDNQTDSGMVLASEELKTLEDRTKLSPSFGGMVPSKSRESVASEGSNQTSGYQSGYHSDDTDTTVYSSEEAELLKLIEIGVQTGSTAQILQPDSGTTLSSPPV
structure (smiles),measurement,setting,value
Nc1nc2c(c(Nc3ccc(Cl)cc3)n1)-c1ccccc1C2 [AAG145-136],IC50,Flk-1 kinase,> 200 µM
same,"antitumor activity (tumor volume, tumor growth rate)",B16-F10 tumors,potent antitumor activity
same,GI50,OCRF-CEM,3.12E−6 Molar
same,LC50,OCRF-CEM,>1.00E−4 Molar
same,TGI,OCRF-CEM,>1.00E−4 Molar
same,Percent Growth,OCRF-CEM; Log10 Concentration −4.0 Molar,11%
same,Percent Growth,OCRF-CEM; Log10 Concentration −5.0 Molar,6%
same,Percent Growth,OCRF-CEM; Log10 Concentration −6.0 Molar,8%
same,Percent Growth,OCRF-CEM; Log10 Concentration −7.0 Molar,22%
same,Percent Growth,OCRF-CEM; Log10 Concentration −8.0 Molar,77%
same,GI50,MOLT-4,6.61E−8 Molar
same,LC50,MOLT-4,>1.00E−4 Molar
same,TGI,MOLT-4,>1.00E−4 Molar
same,Percent Growth,MOLT-4; Log10 Concentration −4.0 Molar,21%
same,Percent Growth,MOLT-4; Log10 Concentration −5.0 Molar,11%
same,Percent Growth,MOLT-4; Log10 Concentration −6.0 Molar,14%
same,Percent Growth,MOLT-4; Log10 Concentration −7.0 Molar,39%
same,Percent Growth,MOLT-4; Log10 Concentration −8.0 Molar,99%
same,GI50,RPMI-8226,4.89E−7 Molar
same,LC50,RPMI-8226,>1.00E−4 Molar
same,TGI,RPMI-8226,>1.00E−4 Molar
same,Percent Growth,RPMI-8226; Log10 Concentration −4.0 Molar,7%
same,Percent Growth,RPMI-8226; Log10 Concentration −5.0 Molar,11%
same,Percent Growth,RPMI-8226; Log10 Concentration −6.0 Molar,32%
same,Percent Growth,RPMI-8226; Log10 Concentration −7.0 Molar,89%
same,Percent Growth,RPMI-8226; Log10 Concentration −8.0 Molar,96%
same,GI50,SR,4.84E−8 Molar
same,LC50,SR,>1.00E−4 Molar
same,TGI,SR,>1.00E−4 Molar
same,Percent Growth,SR; Log10 Concentration −4.0 Molar,2%
same,Percent Growth,SR; Log10 Concentration −5.0 Molar,12%
same,Percent Growth,SR; Log10 Concentration −6.0 Molar,22%
same,Percent Growth,SR; Log10 Concentration −7.0 Molar,41%
same,Percent Growth,SR; Log10 Concentration −8.0 Molar,70%
same,GI50,HOP-92,1.81E−5 Molar
same,LC50,HOP-92,>1.00E−4 Molar
same,TGI,HOP-92,>1.00E−4 Molar
same,Percent Growth,HOP-92; Log10 Concentration −4.0 Molar,15%
same,Percent Growth,HOP-92; Log10 Concentration −5.0 Molar,62%
same,Percent Growth,HOP-92; Log10 Concentration −6.0 Molar,74%
same,Percent Growth,HOP-92; Log10 Concentration −7.0 Molar,96%
same,Percent Growth,HOP-92; Log10 Concentration −8.0 Molar,100%
same,GI50,HCT-15,4.34E−7 Molar
same,LC50,HCT-15,>1.00E−4 Molar
same,TGI,HCT-15,1.22E−5 Molar
same,Percent Growth,HCT-15; Log10 Concentration −4.0 Molar,−39%
same,Percent Growth,HCT-15; Log10 Concentration −5.0 Molar,4%
same,Percent Growth,HCT-15; Log10 Concentration −6.0 Molar,29%
same,Percent Growth,HCT-15; Log10 Concentration −7.0 Molar,68%
same,Percent Growth,HCT-15; Log10 Concentration −8.0 Molar,94%
same,GI50,HT29,9.39E−8 Molar
same,LC50,HT29,>1.00E−4 Molar
same,TGI,HT29,>1.00E−4 Molar
same,Percent Growth,HT29; Log10 Concentration −4.0 Molar,2%
same,Percent Growth,HT29; Log10 Concentration −5.0 Molar,7%
same,Percent Growth,HT29; Log10 Concentration −6.0 Molar,21%
same,Percent Growth,HT29; Log10 Concentration −7.0 Molar,49%
same,Percent Growth,HT29; Log10 Concentration −8.0 Molar,94%
same,GI50,SF-539,3.81E−7 Molar
same,LC50,SF-539,>1.00E−4 Molar
same,TGI,SF-539,>1.00E−4 Molar
same,Percent Growth,SF-539; Log10 Concentration −4.0 Molar,2%
same,Percent Growth,SF-539; Log10 Concentration −5.0 Molar,20%
same,Percent Growth,SF-539; Log10 Concentration −6.0 Molar,31%
same,Percent Growth,SF-539; Log10 Concentration −7.0 Molar,77%
same,Percent Growth,SF-539; Log10 Concentration −8.0 Molar,101%
same,GI50,UACC-62,6.41E−7 Molar
same,LC50,UACC-62,>1.00E−4 Molar
same,TGI,UACC-62,>1.00E−4 Molar
same,Percent Growth,UACC-62; Log10 Concentration −4.0 Molar,32%
same,Percent Growth,UACC-62; Log10 Concentration −5.0 Molar,27%
same,Percent Growth,UACC-62; Log10 Concentration −6.0 Molar,38%
same,Percent Growth,UACC-62; Log10 Concentration −7.0 Molar,99%
same,Percent Growth,UACC-62; Log10 Concentration −8.0 Molar,99%
same,GI50,IGROV1,2.87E−7 Molar
same,LC50,IGROV1,>1.00E−4 Molar
same,TGI,IGROV1,>1.00E−4 Molar
same,Percent Growth,IGROV1; Log10 Concentration −4.0 Molar,11%
same,Percent Growth,IGROV1; Log10 Concentration −5.0 Molar,6%
same,Percent Growth,IGROV1; Log10 Concentration −6.0 Molar,24%
same,Percent Growth,IGROV1; Log10 Concentration −7.0 Molar,72%
same,Percent Growth,IGROV1; Log10 Concentration −8.0 Molar,93%
same,GI50,785-0,5.14E−7 Molar
same,LC50,785-0,>1.00E−4 Molar
same,TGI,785-0,>1.00E−4 Molar
same,Percent Growth,785-0; Log10 Concentration −4.0 Molar,16%
same,Percent Growth,785-0; Log10 Concentration −5.0 Molar,26%
same,Percent Growth,785-0; Log10 Concentration −6.0 Molar,31%
same,Percent Growth,785-0; Log10 Concentration −7.0 Molar,97%
same,Percent Growth,785-0; Log10 Concentration −8.0 Molar,102%
same,GI50,A498,2.49E−6 Molar
same,LC50,A498,>1.00E−4 Molar
same,TGI,A498,2.85E−5 Molar
same,Percent Growth,A498; Log10 Concentration −4.0 Molar,−17%
same,Percent Growth,A498; Log10 Concentration −5.0 Molar,14%
same,Percent Growth,A498; Log10 Concentration −6.0 Molar,74%
same,Percent Growth,A498; Log10 Concentration −7.0 Molar,91%
same,Percent Growth,A498; Log10 Concentration −8.0 Molar,101%
same,GI50,SN12C,1.89E−7 Molar
same,LC50,SN12C,>1.00E−4 Molar
same,TGI,SN12C,>1.00E−4 Molar
same,Percent Growth,SN12C; Log10 Concentration −4.0 Molar,9%
same,Percent Growth,SN12C; Log10 Concentration −5.0 Molar,25%
same,Percent Growth,SN12C; Log10 Concentration −6.0 Molar,37%
same,Percent Growth,SN12C; Log10 Concentration −7.0 Molar,55%
same,Percent Growth,SN12C; Log10 Concentration −8.0 Molar,102%
same,GI50,UO-31,7.90E−7 Molar
same,LC50,UO-31,>1.00E−4 Molar
same,TGI,UO-31,>1.00E−4 Molar
same,Percent Growth,UO-31; Log10 Concentration −4.0 Molar,31%
same,Percent Growth,UO-31; Log10 Concentration −5.0 Molar,31%
same,Percent Growth,UO-31; Log10 Concentration −6.0 Molar,46%
same,Percent Growth,UO-31; Log10 Concentration −7.0 Molar,88%
same,Percent Growth,UO-31; Log10 Concentration −8.0 Molar,105%
same,GI50,PC-3,7.15E−7 Molar
same,LC50,PC-3,>1.00E−4 Molar
same,TGI,PC-3,7.99E−5 Molar
same,Percent Growth,PC-3; Log10 Concentration −4.0 Molar,−2%
same,Percent Growth,PC-3; Log10 Concentration −5.0 Molar,18%
same,Percent Growth,PC-3; Log10 Concentration −6.0 Molar,40%
same,Percent Growth,PC-3; Log10 Concentration −7.0 Molar,111%
same,Percent Growth,PC-3; Log10 Concentration −8.0 Molar,104%
same,GI50,MCF7,7.34E−8 Molar
same,LC50,MCF7,>1.00E−4 Molar
same,TGI,MCF7,1.41E−5 Molar
same,Percent Growth,MCF7; Log10 Concentration −4.0 Molar,−26%
same,Percent Growth,MCF7; Log10 Concentration −5.0 Molar,5%
same,Percent Growth,MCF7; Log10 Concentration −6.0 Molar,17%
same,Percent Growth,MCF7; Log10 Concentration −7.0 Molar,45%
same,Percent Growth,MCF7; Log10 Concentration −8.0 Molar,63%
same,GI50,NCWADR-RES,7.87E−7 Molar
same,LC50,NCWADR-RES,>1.00E−4 Molar
same,TGI,NCWADR-RES,>1.00E−4 Molar
same,Percent Growth,NCWADR-RES; Log10 Concentration −4.0 Molar,24%
same,Percent Growth,NCWADR-RES; Log10 Concentration −5.0 Molar,29%
same,Percent Growth,NCWADR-RES; Log10 Concentration −6.0 Molar,44%
same,Percent Growth,NCWADR-RES; Log10 Concentration −7.0 Molar,100%
same,Percent Growth,NCWADR-RES; Log10 Concentration −8.0 Molar,100%
